The values below come from article PMC6704710, “Preclinical evaluation of 3D185, a novel potent inhibitor of FGFR1/2/3 and CSF-1R, in FGFR-dependent and macrophage-dominant cancer models” (Journal of Experimental & Clinical Cancer Research : CR, 2019).

Assay in all cases: Eurofins kinase panel
Common to all, as to assay type: biochemical
Common to all, as to conditions: read-out: Inhibition rate (%)

One test deals with T1, MuSK(h) (Homo sapiens, UniProt O15146).
T1 construct: purchased Eurofins (KinaseProfiler)
T1 sequence (O15146 24-869): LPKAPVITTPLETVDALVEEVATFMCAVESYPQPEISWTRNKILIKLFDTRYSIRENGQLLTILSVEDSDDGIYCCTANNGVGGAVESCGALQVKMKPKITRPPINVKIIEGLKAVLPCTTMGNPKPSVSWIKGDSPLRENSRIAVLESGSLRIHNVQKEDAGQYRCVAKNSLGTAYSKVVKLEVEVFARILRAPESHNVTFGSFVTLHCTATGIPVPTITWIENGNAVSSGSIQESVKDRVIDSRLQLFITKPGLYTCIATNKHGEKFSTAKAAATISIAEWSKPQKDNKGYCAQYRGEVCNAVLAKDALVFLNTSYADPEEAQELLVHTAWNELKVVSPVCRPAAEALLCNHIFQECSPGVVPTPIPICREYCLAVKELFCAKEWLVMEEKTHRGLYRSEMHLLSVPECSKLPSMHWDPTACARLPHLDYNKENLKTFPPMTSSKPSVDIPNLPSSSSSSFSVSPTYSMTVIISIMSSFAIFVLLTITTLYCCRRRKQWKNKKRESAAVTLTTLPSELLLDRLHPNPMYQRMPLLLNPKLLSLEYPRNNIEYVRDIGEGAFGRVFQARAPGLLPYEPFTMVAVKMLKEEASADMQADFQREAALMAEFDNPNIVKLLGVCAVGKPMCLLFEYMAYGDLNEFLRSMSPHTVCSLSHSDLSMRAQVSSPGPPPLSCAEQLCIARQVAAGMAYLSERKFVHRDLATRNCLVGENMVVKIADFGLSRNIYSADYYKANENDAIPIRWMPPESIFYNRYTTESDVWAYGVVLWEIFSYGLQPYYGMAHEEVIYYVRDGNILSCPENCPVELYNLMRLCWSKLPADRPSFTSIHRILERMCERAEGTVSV

In another test the target is T2, NUAK2(h) (Homo sapiens, UniProt Q9H093).
T2 construct: purchased Eurofins (KinaseProfiler)
T2 sequence (Q9H093 1-628): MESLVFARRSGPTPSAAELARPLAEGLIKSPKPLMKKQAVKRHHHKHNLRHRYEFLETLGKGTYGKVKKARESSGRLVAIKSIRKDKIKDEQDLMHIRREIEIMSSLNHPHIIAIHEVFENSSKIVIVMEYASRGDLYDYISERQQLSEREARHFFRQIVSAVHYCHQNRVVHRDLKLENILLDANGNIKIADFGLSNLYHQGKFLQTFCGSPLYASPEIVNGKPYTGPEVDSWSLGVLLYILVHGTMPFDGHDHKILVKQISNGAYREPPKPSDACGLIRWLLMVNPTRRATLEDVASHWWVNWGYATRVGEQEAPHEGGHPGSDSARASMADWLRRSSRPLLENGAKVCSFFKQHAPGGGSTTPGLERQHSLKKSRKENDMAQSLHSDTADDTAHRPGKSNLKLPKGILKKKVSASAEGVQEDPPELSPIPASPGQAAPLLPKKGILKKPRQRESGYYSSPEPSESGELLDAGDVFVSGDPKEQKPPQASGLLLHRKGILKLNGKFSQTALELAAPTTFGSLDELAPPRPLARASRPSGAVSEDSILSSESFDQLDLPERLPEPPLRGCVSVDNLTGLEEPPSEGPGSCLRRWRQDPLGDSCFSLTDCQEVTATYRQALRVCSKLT

The target of a further test is T3, Flt3(h) (Homo sapiens, UniProt P36888).
T3 construct: purchased Eurofins (KinaseProfiler)
T3 sequence (P36888 27-993): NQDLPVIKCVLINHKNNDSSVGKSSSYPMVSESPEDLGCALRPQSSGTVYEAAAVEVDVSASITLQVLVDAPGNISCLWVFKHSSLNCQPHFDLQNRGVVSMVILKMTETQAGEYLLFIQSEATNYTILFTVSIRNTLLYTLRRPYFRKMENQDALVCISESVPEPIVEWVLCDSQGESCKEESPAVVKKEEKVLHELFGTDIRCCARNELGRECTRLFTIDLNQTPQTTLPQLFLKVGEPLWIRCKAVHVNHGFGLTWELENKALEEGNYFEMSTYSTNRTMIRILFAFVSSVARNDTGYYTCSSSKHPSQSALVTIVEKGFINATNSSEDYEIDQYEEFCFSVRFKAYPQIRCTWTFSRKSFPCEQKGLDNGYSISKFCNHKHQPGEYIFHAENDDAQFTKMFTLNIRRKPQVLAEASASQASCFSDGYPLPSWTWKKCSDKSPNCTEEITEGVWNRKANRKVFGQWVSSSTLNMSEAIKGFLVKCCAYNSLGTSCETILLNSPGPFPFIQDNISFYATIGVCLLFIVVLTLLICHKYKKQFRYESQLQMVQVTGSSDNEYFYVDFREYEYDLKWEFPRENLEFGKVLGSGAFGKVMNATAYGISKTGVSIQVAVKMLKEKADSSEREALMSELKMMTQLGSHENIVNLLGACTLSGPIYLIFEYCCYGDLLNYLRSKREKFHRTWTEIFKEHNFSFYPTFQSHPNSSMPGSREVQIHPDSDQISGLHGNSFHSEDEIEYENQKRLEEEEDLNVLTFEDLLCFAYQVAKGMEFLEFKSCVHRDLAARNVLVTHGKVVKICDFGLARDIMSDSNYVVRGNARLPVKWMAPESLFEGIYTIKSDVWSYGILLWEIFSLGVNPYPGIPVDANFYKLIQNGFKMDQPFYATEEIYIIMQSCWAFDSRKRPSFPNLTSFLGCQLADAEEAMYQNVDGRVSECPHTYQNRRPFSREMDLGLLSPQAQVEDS

The next test addresses T4, ACTR2(h) (Homo sapiens, UniProt P27037).
T4 construct: purchased Eurofins (KinaseProfiler)

The target of the next test is T5, IR(h) (Homo sapiens, UniProt P06213).
T5 construct: purchased Eurofins (KinaseProfiler)
T5 sequence (P06213 28-1382): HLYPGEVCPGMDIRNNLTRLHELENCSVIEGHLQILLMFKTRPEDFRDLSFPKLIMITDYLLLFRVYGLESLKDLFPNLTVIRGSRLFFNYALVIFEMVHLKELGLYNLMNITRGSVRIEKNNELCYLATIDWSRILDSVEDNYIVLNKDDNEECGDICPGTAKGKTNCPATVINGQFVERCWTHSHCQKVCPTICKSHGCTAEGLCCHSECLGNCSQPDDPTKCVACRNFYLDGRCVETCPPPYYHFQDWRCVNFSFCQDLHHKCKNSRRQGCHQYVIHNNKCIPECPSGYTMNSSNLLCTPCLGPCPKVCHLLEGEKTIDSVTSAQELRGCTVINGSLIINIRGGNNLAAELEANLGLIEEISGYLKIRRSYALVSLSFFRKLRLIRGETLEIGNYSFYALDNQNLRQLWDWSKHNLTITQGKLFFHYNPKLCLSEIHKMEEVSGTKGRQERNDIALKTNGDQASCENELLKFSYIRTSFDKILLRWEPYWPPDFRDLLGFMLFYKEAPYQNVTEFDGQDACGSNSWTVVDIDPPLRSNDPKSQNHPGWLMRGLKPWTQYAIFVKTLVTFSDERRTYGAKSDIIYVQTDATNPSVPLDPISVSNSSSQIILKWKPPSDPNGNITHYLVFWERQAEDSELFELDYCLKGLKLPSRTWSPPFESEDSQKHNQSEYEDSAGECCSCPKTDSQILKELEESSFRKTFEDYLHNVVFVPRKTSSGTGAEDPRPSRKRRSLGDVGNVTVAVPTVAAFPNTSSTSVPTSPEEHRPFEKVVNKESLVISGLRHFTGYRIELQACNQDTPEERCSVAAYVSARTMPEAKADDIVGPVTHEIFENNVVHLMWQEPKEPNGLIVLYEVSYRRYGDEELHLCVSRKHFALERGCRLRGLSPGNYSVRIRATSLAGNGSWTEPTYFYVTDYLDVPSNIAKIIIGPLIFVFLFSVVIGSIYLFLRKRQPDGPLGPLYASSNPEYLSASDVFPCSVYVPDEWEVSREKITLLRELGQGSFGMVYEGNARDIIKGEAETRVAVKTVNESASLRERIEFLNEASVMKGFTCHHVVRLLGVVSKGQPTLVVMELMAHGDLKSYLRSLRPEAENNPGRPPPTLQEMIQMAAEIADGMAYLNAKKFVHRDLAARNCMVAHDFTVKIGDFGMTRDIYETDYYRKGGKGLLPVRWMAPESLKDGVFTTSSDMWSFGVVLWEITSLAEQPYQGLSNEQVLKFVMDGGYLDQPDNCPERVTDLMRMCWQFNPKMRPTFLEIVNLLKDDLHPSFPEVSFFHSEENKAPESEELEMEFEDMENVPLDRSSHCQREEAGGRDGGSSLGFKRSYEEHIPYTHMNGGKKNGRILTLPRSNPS

T4 sequence (P27037 20-513): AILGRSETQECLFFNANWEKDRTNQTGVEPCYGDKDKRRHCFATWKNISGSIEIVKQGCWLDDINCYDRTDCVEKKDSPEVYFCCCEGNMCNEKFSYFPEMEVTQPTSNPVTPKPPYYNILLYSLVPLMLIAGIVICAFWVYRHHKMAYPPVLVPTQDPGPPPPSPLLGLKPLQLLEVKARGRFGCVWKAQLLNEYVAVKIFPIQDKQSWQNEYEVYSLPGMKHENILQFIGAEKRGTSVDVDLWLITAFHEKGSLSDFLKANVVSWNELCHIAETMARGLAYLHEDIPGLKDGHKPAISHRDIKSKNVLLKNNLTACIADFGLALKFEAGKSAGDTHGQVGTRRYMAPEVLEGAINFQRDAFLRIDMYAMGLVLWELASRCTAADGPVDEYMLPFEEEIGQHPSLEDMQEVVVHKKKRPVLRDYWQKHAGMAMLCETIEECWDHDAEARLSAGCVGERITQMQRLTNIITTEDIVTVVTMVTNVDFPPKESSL

One may read the inhibition as the relative decrease from the control value, in per cent. In the case of `COc1cc(OC)c(Cl)c(-c2ccc3c(NC(=O)c4ccc(N5CCNC(C)(C)C5)cc4)n[nH]c3n2)c1Cl` [3D185], the inhibition at 0.01 µM was 2% on MuSK(h) (10 nM); -1% at NUAK2(h) (10 nM); 10% on Flt3(h) (10 nM); 0% at ACTR2(h) (10 nM); 16% at IR(h) (10 nM). For the same compound, the inhibition at 0.1 µM at MuSK(h) (100 nM) was 7%; at NUAK2(h) (100 nM), -1%; on Flt3(h) (100 nM), 17%; on ACTR2(h) (100 nM), -1%; on IR(h) (100 nM) it was 32%. The inhibition at 1 µM at MuSK(h) (1000 nM) was 47%; on NUAK2(h) (1000 nM), 0%; on Flt3(h) (1000 nM), 27%; on ACTR2(h) (1000 nM), 1%; on IR(h) (1000 nM) it was 94%.
